From US11191754B2, “Inhibitors of nucleotidyl transferases and uses in herpes and hepatitis viral infections therefor” (Saint Louis University, priority 2015, dated 2021)

Experiments:
HBV [1] = test: Chou-Talalay combination analysis with Lamivudine against HBV replication; format: cell-based, hepatitis B virus; conditions: together with Lamivudine; CI <1.0 indicates synergy
Excerpt: Current nucleos(t)ide analog therapy for HBV has converted hepatitis type B from an implacably progressing illness to a controllable disease. However, patients are only very rarely cured, in part due to the incomplete inhibition of HBV replication. The inventors hypothesized that the novel RNaseH inhibitors would work synergistically with the existing nucleos(t)ide analogs because the two classes of drugs target physically distinct active sites on the viral polymerase protein. […] RNAseH inhibitors from two different chemical classes were employed, compound #1 [2-hydroxyisoquinoline-1,3(2H,4H)-dione], an HID, and #46 (β-thujaplicinol), an α-hydroxytropolone, were tested. Chou-Talaly analysis yields a combination index (CI). CI values <1.0 indicate synergy, CIs of approximately 1.0 indicate additive interactions, and CI values >1.0 indicate antagonism. CI values are calculated at various efficacy levels (EC50, EC75, EC90, and EC95), and a weighted CI value favoring higher efficacy levels is also generated. FIGS. 4A & 4B show the results of four experiments employing compound #1 and three with compound #46. […] Therefore, RNAseH inhibitors act strongly synergistically with an approved nucleos(t)ide analog drug against HBV.

HBV RNAseH = test: Biochemical RNAseH assay with patient-derived variant HBV RNAseH enzymes; set-up: species or system hepatitis B virus; conditions: four genotype D patient-derived enzymes; compound at its IC50 (FIGS. 5A & 5B)
Description: RNaseH activity was measured using an oligonucleotide-directed RNA cleavage assay as previously described in Hu, et al., Tavis, et al., and Cai, et al. (2013; 2013; and 2014, respectfully). Briefly, 6 μL protein extract was mixed on ice with an internally ^32P-labeled 264 nt RNA derived from the Duck Hepatitis B Virus genome (DRF+ RNA) plus 3 μg oligonucleotide D2507- or its inverse-complement oligonucleotide D2526+ as a negative control. This mixture was incubated with test compounds in 50 mM Tris pH 8.0, 190 mM NaCl, 5 mM MgCl2, 3.5 mM DTT, 0.05% NP40, 6% glycerol, and 1% DMSO at 42° C. for 90 minutes. Cleavage products were resolved by denaturing polyacrylamide gel electrophoresis, detected by autoradiography, and quantified using ImageJ. Non-specific background values were determined from the incorrect oligonucleotide negative control lane and subtracted from all experimental values. IC50 values were then calculated with GraphPad Prism using three-parameter log(inhibitor) vs. response non-linear curve fitting with the curve minimum set to zero to reflect background subtraction.
HBV has 8 genotypes differing in sequence by 8%. Genetic diversity in the RNAseH domain is about 6%, which is easily high enough to modulate viral sensitivity to RNAseH inhibitors. […]

HBV [2] = conditions: HBV patients; cited from earlier work
HSV-1 = test: Anti-HSV-1 replication assay (virus yield by plaque assay on Vero cells); format: cell-based, herpes simplex virus 1 (HSV-1); conditions: Vero cells, moi 0.1, 24 h, relative to DMSO control
Description: (§1) Vero cells were maintained in Dulbecco's modified Eagle's medium (DMEM) containing 3% newborn calf serum, 3% bovine growth serum, 2 mM L-glutamine and 100 IU/mL penicillin and 0.1 mg/mL streptomycin (P/S). HSV-1 #6 and HSV-2 #1 are de-identified clinical isolates from the Saint Louis University Hospital. Stocks were prepared after a single passage in cell culture and were titered by standard plaque assay (Knipe and Spang, 1982). Wild-type HSV-2 used in FIG. 3 was laboratory strain 333. […] Virus stocks were grown and titered on Vero cells (Morrison and Knipe, 1996).
(§2) Compounds to be screened were diluted in PBS supplemented to contain 2% newborn calf serum and 1% glutamine, and added in 100 μL volume to confluent cell monolayers in 24-well cluster plates. Immediately thereafter HSV-1 and HSV-2, diluted in the supplemented PBS medium, were added to the wells in 50 μl volume such that the final concentration of compound was 50 μM, 5 μM and 1 μM and the multiplicity of infection was 0.1. The plates were incubated at 37° C. for 1 hour and then virus-containing inoculum was removed and the wells were washed once in PBS. Compound, diluted to 50 μM, 5 μM and 1 μM in DMEM supplemented to contain 2% newborn calf serum and 1% each penicillin/streptomycin, was added at 0.5 mL/well. Plates were incubated at 37° C. an additional 23 hours, and then the plates were visually inspected through a phase contrast microscope for cytopathic effect, and for toxic effect. The entire contents of each well were collected by scraping. Samples were frozen at −80° C., and then subsequently thawed, sonicated, and infectious virus titer was determined by standard plaque assay on Vero cell monolayers. Because the compounds were dissolved at 10 mM in 100% DMSO, equivalent dilutions of DMSO were added to additional wells as a control for effects of the diluent. Each experiment was repeated once. EC50 values were determined as above except that serial dilutions of the compound to be tested were prepared starting at 50 μM. The inhibitory values were calculated by non-linear curve-fitting in GraphPad Prism.

HSV-2 = test: Anti-HSV-2 replication assay (virus yield by plaque assay on Vero cells); format: cell-based, herpes simplex virus 2 (HSV-2); conditions: Vero cells, moi 0.1, 24 h, relative to DMSO control
Description: as §1, §2

in vitro = format: cell-based; conditions: African green monkey
Description: Qualitative assessments of cytotoxicity were done visually by inspecting the cells in the primary screening assays. For the quantitative assays, cells were plated in 96-well plates at 1.0×10^4 per well. The next day the compounds were added at 0.78 to 100 μM in a final concentration of 1% (v/v) DMSO, and the cells were incubated for 24 hours under conditions identical to those employed for the viral replication inhibition assays. Mitochondrial toxicity was measured by incubating the cells with 0.25 mg/mL thiazolyl blue tetrazolium bromide (MTT, SigmaAldrich Chemical Co.), the cultures were incubated for 60 min, metabolites were solubilized in acidic isopropanol, and absorbance was read at 570 nm. CC50 values were calculated by non-linear curve fitting using GraphPad Prism.
A quantitative toxicity measurement was conducted. Toxicity was assessed by measuring release of intracellular proteases into the culture medium due to cellular lysis. Cells were plated in 96-well plates at 1.0×10^4 per well. The next day compound was added in concentrations ranging from 0.78 to 100 μM in a final concentration of 1% (v/v) DMSO. The cells were incubated for 24 hours under conditions identical to those employed for the viral replication inhibition assays, and then […] according to the manufacturer's instructions. […]

[3] = tested on: TK-deficient mutant of HSV-2 strain 333, ΔTK-; test: Replication of TK-deficient HSV-2 mutant in Vero cells; format: cell-based, herpes simplex virus 2 (HSV-2); conditions: 5 μM, 24 h (FIG. 3)
Description: Vero cells were maintained in Dulbecco's modified Eagle's medium (DMEM) containing 3% newborn calf serum, 3% bovine growth serum, 2 mM L-glutamine and 100 IU/mL penicillin and 0.1 mg/mL streptomycin (P/S). HSV-1 #6 and HSV-2 #1 are de-identified clinical isolates from the Saint Louis University Hospital. Stocks were prepared after a single passage in cell culture and were titered by standard plaque assay (Knipe and Spang, 1982). Wild-type HSV-2 used in FIG. 3 was laboratory strain 333. The TK-deficient mutant of HSV-2 strain 333, ΔTK-, contains a 180-bp KpnI-KpnI deletion in the UL23 open reading frame that abrogates TK activity (McDermott, et al, 1984). ΔTK—was the generous gift of Jim Smiley. Virus stocks were grown and titered on Vero cells (Morrison and Knipe, 1996).
ACV is a nucleoside analog prodrug that must be phosphorylated by the viral thymidine kinase (TK) for it to become a substrate for the viral DNA polymerase (Elion, et al., 1977). HSV TK-deficient mutants are therefore insensitive to ACV. […] Vero cells were infected with a laboratory strain of HSV-2 and an engineered TK-deficient mutant of the same strain. […] ACV 5 μM inhibited wild-type HSV-2 replication 100-fold, but it had little effect on the TK-mutant (FIG. 3).

Compound: O=C1Cc2ccccc2C(=O)N1O [#1, 2-hydroxyisoquinoline-1,3(2H,4H)-dione]
- weighted combination index (CI) (HBV [1]): 0.70±0.1
- inhibition of HBV RNAseH (HBV RNAseH): about 50%

Compound: CC(C)c1ccc(O)c(=O)c(O)c1 [#46, β-thujaplicinol]
- weighted combination index (CI) (HBV [1]): 0.44±0.3
- inhibition of HBV RNAseH (HBV RNAseH): about 50%

Compound: Interferon α
- sustained clinical improvement (HBV [2]): 20-30 % of patients

Compound: Nc1nc2c(ncn2COCCO)c(=O)[nH]1 [Acyclovir, acyclovir, reference compound]
- HSV-1 Log10 suppression 5 μM (HSV-1): 3.61 log10
- HSV-1 Log10 suppression 5 μM (HSV-1; listed as acyclovir): 4.22 log10
- HSV-1 Log10 suppression 50 μM (HSV-1; 50 μM): 5.39 log10
- HSV-2 Log10 suppression 5 μM (HSV-2): 3.91 log10
- HSV-2 Log10 suppression 5 μM (HSV-2; listed as acyclovir): 3.6 log10
- HSV-2 Log10 suppression 50 μM (HSV-2; 50 μM): 5.25 log10
- CC50 at 24 h (in vitro): > 100 µM
- inhibition of TK-mutant HSV-2 [3]: little effect
